Consider four compounds from US4323559A, “Compounds derived from N-acetyl-nor-muramyl-L-alanyl-D-isoglutamic acid and other compounds and biologically active compositions containing such compounds” (Agencie Nationale de Valorisation de la Recherche (ANVAR), priority 1973, dated 1982).

The subject of one assay is Klebsiella pneumoniae. The assay can be described thus: Anti-infectious protection of mice against Klebsiella pneumoniae infection. Type of assay: in vivo. The note with it: compound iv. 100 μg at -24 h; for % protection: difference of % survivors vs controls; for % survival D + 3 / % survival D + 5 / % survival D + 10: mice.
For assay [1], the system named is bovine serum albumin (BSA). The assay can be described thus: Adjuvant activity in aqueous phase: anti-albumin antibody titer by passive hemagglutination. The note with it: S.C., 100 μg with BSA 0.5 mg/animal in isotonic saline; for Titer of antibody 28th day: Swiss mice; for Titer of antibody 34th day / Titer of antibody 36th day: booster 0.1 mg BSA at day 30. The class given is in vivo, Swiss mice. Here is the method: In the series of tests of which the results are indicated hereafter, the influence of the active principle according to the invention was assessed as bearing on the anti-albumin antibody rate, particularly under the following conditions. Groups of 8 two-month-old Swiss mice received by subcutaneous injection (SC) or orally (PO) 0.5 mg of antigen constituted by the bovine serum albumin (BSA) with or without the substance tested in an isotonic saline solution. This large dose of antigen, because of its closeness to the limit paralysing dose with respect to the immunising response, elicits but a weak or no immune response in the controls; it therefore constitutes a severe criterion for showing the activity of an adjuvant substance. […] The proportion of antibody was determined by passive hemagglutination by using sheep red blood cells treated with formalin and coated with the antigen studied according to the method described by […] and […]. Immunol., 100, 641-648, 1968). Blood samples were taken 14, 28, 34 and 36 days after the first injection.

In the case of `CC(=O)N[C@H]1C(O)O[C@H](COC(C)=O)[C@@H](OC(C)=O)[C@@H]1O[C@H](C)C(=O)N[C@@H](C)C(=O)N[C@H](CCC(=O)O)C(N)=O` (stereo partly drawn) [4,6-di-O-acetyl-Mur-NAc-L-Ala-D-Glu (OH)-NH2], in the assay on Klebsiella pneumoniae (K. pneumoniae im. 2 × 10^4), the “% protection” value is given as 47%, the “% survival D + 3” value was 97%, the “% survival D + 5” value is listed as 84% and the “% survival D + 10” value came to 63%.

With `CC(=O)N[C@H]1C(O)O[C@H](COC(=O)CCC(=O)O)[C@@H](O)[C@@H]1O[C@H](C)C(=O)N[C@@H](C)C(=O)N[C@H](CCC(=O)O)C(N)=O` (stereo partly drawn) [6-O-succinyl-Mur-NAc-L-Ala-D-Glu, (OH)-NH2], in the assay on Klebsiella pneumoniae (K. pneumoniae im. 2 × 10^4), the “% protection” value was 44%, the “% survival D + 3” value amounted to 100%, the “% survival D + 5” value is listed as 91% and the “% survival D + 10” value is on record as 63%.

For `CC(=O)N[C@@H]1[C@@H](O[C@H](C)C(=O)N[C@@H](C)C(=O)N[C@H](CCC(=O)O)C(N)=O)[C@H](O)[C@@H](CO)O[C@H]1O` [Mur-NAc-L-Ala-D-Glu(OH)--NH2, Mur-NAc-L-Ala-D-Glu(OH)-NH2, reference compound], in assay [1], the “Titer of antibody 28th day” value stood at 25, the “Titer of antibody 34th day” value turned out to be 50 and the “Titer of antibody 36th day” value was 400. For the same compound, in the assay with Klebsiella pneumoniae (K. pneumoniae im. 1,5 × 10^4), the “% protection” value is 47%, the “% survival D + 3” value amounted to 83%, the “% survival D + 5” value is 66% and the “% survival D + 10” value is listed as 60%.

Regarding `CC(=O)N[C@H]1C(O)O[C@H](CO)[C@@H](O)[C@@H]1OCC(=O)N[C@@H](C)C(=O)N[C@H](CCC(=O)O)C(N)=O` (stereo partly drawn) [norMur-NAc-L-Ala-D-Glu(OH)-NH2, 2-(2-acetamido-2-deoxy-3-O-D-glucopyranosyl)-acetyl-L-alanyl-D-isoglutamine], in assay [1], the “Titer of antibody 28th day” value was 25, the “Titer of antibody 34th day” value worked out at 50 and the “Titer of antibody 36th day” value came out at 350. Also, in the assay with Klebsiella pneumoniae (K. pneumoniae im. 1,5 × 10^4), the “% protection” value is 47%, the “% survival D + 3” value worked out at 78%, the “% survival D + 5” value amounted to 64% and the “% survival D + 10” value was determined as 60%.
